Among the data in patent EP4640686A1, “DEGRADER FOR DEGRADING BRD PROTEIN AND PHARMACEUTICAL COMPOSITION CONTAINING SAME” (Innocure Therapeutics, Inc., priority 2022, dated 2024) are DC50 and IC50 values, retold here.

Common to all, as to type: cell-based
For test [1], the target named is T1, BRD4-NUT (Homo sapiens, UniProt O60885+Q86Y26).
T1 construct: endogenous in cells; host or cells: RPMI2650
The test can be described thus: BRD4-NUT protein degradation by western blotting in RPMI2650 cells (24 h treatment). On the procedure:
(§1) The synthesized compounds were prepared with a 10 mM or 50 mM raw material solution dissolved in DMSO [dimethyl sulfoxide], and were diluted sequentially and treated. [RPMI2650] and [SNU2972] were cultivated under specific conditions.
(§2) To evaluate the resolution of PROTAC for BRD4 expressed in cells, cells were dispensed in a concentration of 5 X 10^5 cells/well in a 6-well plate, and the sample was treated for 24 hours. […] Protein expression was normalized based on the expression value of β or GAPDH, and protein expression in each sample was measured as % based on 100% of samples treated with 0.1% DMSO vehicle. Protein expression was quantified using Image J program. Change in protein expression volume by compound treatment (DC50: concentration of compounds where 50% protein expression inhibition is achieved) was calculated using the GraphicPad Prism 8.0 software.

The test system of test [2] is RPMI2650. The test is described as follows: Cancer cell antiproliferative activity / cell viability in RPMI2650 cells (72 h treatment). To be noted: Homo sapiens. The protocol:
The human breast cancer cell line [MDA-MB-231] was cultured in RPMI medium with the addition of 10% fetal bovine serum, penicillin [100U/ml], and streptomycin [[…]]. The synthesized compounds were prepared with a 10 mM or 50 mM raw material solution dissolved in DMSO [dimethyl sulfoxide], and were diluted sequentially and treated. [RPMI2650] and [SNU2972] were cultivated under specific conditions.
To observe cell growth inhibition, cells were dispensed in a concentration of 5,000 cells/well in a 96-well plate, and samples prepared at various concentrations were treated for 72 hours. The IC50 value (the concentration of the compound achieving 50% cytostaticism) is the average value of the results of three independent measurements.

In test [3] the target is BRD4 (Homo sapiens, UniProt O60885). The test is described as follows: BRD4 protein degradation by western blotting in RPMI2650 cells (24 h treatment). On the set-up: To evaluate the resolution of PROTAC for BRD4 expressed in cells; endogenous in cells; host or cells: RPMI2650. On the procedure: as §1, §2
A general note: In western blotting, separated proteins are transferred to a membrane and probed.

The mark [4] stands for this setting: RPM12650, read-out: BRD4-NUT (DC50).
Where [5] appears, read: RPM12650, read-out: BRD4 (DC50).
[6] abbreviates: read-out: BRD4-NUT (DC50), RPMI2650.
[7] abbreviates: read-out: BR04 (DC50), RPMI2650.
The mark [8] stands for this setting: RPMI-2650, RPM12650, read-out: Cell Viatility (IC50).

pIC50: −log10 of the molar value. Where two headings read alike, the source gives them in different places.

On to `CC[C@@H]1c2nnc(C)n2-c2cnc(Nc3ccc(C(=O)NC4CCN(Cc5ccc(NC6CCC(=O)NC6=O)cc5)CC4)cc3OC)nc2N1CC1CCCCC1` (stereo partly drawn) [ICT-0001569, 4-{[(4R)-5-(cyclohexylmethyl)-4-ethyl-1-methyl-4H,5H-[1,2,4]triazolo[4,3-f]pteridine-7-yl]amino}-N-[1-({4-[(2,6-dioxopiperidin-3-yl)amino]phenyl}methyl)piperidine-4-yl]-3-methoxybenzamide], for which the DC50 in test [1] (setting [4]) and in test [3] (setting [5]) was > 1 µM throughout. Moreover, the pIC50 in test [2] (RPMI-2650, 72 h, RPM12650, read-out: Cell Viatility (IC50)) is < 6.00.

As for `Cc1sc2c(c1C)C(c1ccc(Cl)cc1)=N[C@@H](CC(=O)Nc1ccc(OC[C@@H]3CN(c4ccc5c(=O)n(C6CCC(=O)NC6=O)nc(C)c5c4)CCO3)cc1)c1nnc(C)n1-2` (stereo partly drawn) [ICT-0001430, 2-[(9S)-7-(4-chlorophenyl)-4,5,13-trimethyl-3-thia-1,8,11,12-tetraazatricyclo[8.3.0.0^2,^6]trideca-2(6),4,7,10,12-pentaene-9-yl]-N-(4-{[(2S)-4-[2-(2,6-dioxopiperidin-3-yl)-4-methyl-1-oxo-1,2-dihydroptalazine-6-yl]morpholine-2-yl]methoxy}phenyl)acetamide], the DC50 in test [1] (setting [6]) and in test [3] (setting [7]) was < 0.1 µM throughout. Besides, the pIC50 in test [2] (RPMI-2650, RPMI2650, read-out: BRD4 (IC50)) was 6.00 to 7.00.

With `CC[C@@H]1c2nnc(C)n2-c2cnc(Nc3ccc(C(=O)NC4CCN(C(=O)C5CCN(c6ccc7c(C)nn(C8CCC(=O)NC8=O)c(=O)c7c6)CC5)CC4)cc3OC)nc2N1CC1CCCCC1` (stereo partly shown) [ICT-0001592], the DC50 in test [1] (setting [4]) and in test [3] (setting [5]) was < 0.1 µM throughout. In addition, the pIC50 in test [2] (setting [8]) is > 7.00.

Take `CC[C@@H]1c2nnc(C)n2-c2cnc(Nc3ccc(C(=O)N4CCC(N5CCN(c6ccc7c(=O)n(C8CCC(=O)NC8=O)nc(C)c7c6)CC5)CC4)cc3OC)nc2N1CC1CCCCC1` (stereo partly drawn) [ICT-0001556, 3-(6-(4-(1-(4-(((R)-5-(cyclohexylmethyl)-4-ethyl-1-methyl-4,5-dihydro-[1,2,4]triazolo[4,3-f]pteridine-7-yl)amino)3-methoxybenzoyl)piperidine-4-yl)piperazine-1-yl)4-methyl-1-oxopthalazine-2(1H)-yl)piperidine-2,6-dione]: the DC50 in test [1] (setting [4]) and in test [3] (setting [5]) was < 0.1 µM in each case. The pIC50 in test [2] (setting [8]) was < 6.00.

In the case of `CC[C@@H]1c2nnc(C)n2-c2cnc(Nc3ccc(C(=O)N4CCN(CCNc5cccc6c(=O)n(C7CCC(=O)NC7=O)ncc56)CC4)cc3OC)nc2N1CC1CCCCC1` (stereo partly shown) [ICT-0001602], the figures for the DC50 in test [1] (setting [4]) and in test [3] (setting [5]) were 0.1 to 1 µM and < 0.1 µM, respectively. Also, the pIC50 in test [2] (setting [8]) is < 6.00.

Take `CC[C@@H]1c2nnc(C)n2-c2cnc(Nc3ccc(C(=O)N4CCN(c5ccc6c(=O)n(C7CCC(=O)NC7=O)nc(C)c6c5)CC4)cc3OC)nc2N1CC1CCCCC1` (stereo partly drawn) [ICT-0001576, 3-{6-[4-(4-{[(4R)-5-(cyclohexylmethyl)-4-ethyl-1-methyl-4H,5H-[1,2,4]triazolo[4,3-f]pteridine-7-yl]amino}-3-methoxybenzoyl)piperazine-1-yl]-4-methyl-1-oxo-1,2-dihydroptalazine-2-yl}piperidine-2,6-dione]: the DC50 in test [1] (setting [4]) and in test [3] (setting [5]) was < 0.1 µM each time. Moreover, the pIC50 in test [2] (setting [8]) is < 6.00.

As to `CC[C@@H]1c2nnc(C)n2-c2cnc(Nc3ccc(C(=O)NCCNc4cccc5cnn(C6CCC(=O)NC6=O)c(=O)c45)cc3OC)nc2N1CC1CCCCC1` (stereo partly drawn) [ICT-0001558, 4-(((R)-5-(cyclohexylmethyl)-4-ethyl-1-methyl-4,5-dihydro-[1,2,4]triazolo[4,3-f]pteridine-7-yl)amino)N-(2-((3-(2,6-dioxopiperidin-3-yl)4-oxo-3,4-dihydroptalazine-5-yl)amino)ethyl)-3-methoxybenzamide], the DC50 in test [1] (setting [4]) and in test [3] (setting [5]) was < 0.1 µM throughout. The pIC50 in test [2] (setting [8]) is < 6.00.

Regarding `CC[C@@H]1c2nnc(C)n2-c2cnc(Nc3ccc(C(=O)N4CCN(CC5CCN(c6ccc7c(=O)n(C8CCC(=O)NC8=O)nc(C)c7c6)CC5)CC4)cc3OC)nc2N1CC1CCCCC1` (stereo partly drawn) [ICT-0001516, 3-(6-(4-((4-(4-(((R)-5-(cyclohexylmethyl)-4-ethyl-1-methyl-4,5-dihydro-[1,2,4]triazolo[4,3-f]pteridine-7-yl)amino)3-methoxybenzoyl)piperazine-1-il)methyl)piperidine-1-yl)4-methyl-1-oxopthalazine-2(1H)-yl)piperidine-2,6-dione], the DC50 in test [1] (setting [4]) and in test [3] (setting [5]) was < 0.1 µM throughout. The pIC50 in test [2] (setting [8]) was < 6.00.

Regarding `CC[C@@H]1c2nnc(C)n2-c2cnc(Nc3ccc(C(=O)NC4CCN(c5ccc6c(=O)n(C7CCC(=O)NC7=O)nc(C)c6c5)CC4)cc3OC)nc2N1CC1CCCCC1` (stereo partly drawn) [ICT-0001567, 4-{[(4R)-5-(cyclohexylmethyl)-4-ethyl-1-methyl-4H,5H-[1,2,4]triazolo[4,3-f]pteridine-7-yl]amino}-N-{1-[2-(2,6-dioxopiperidine-3-yl)-4-methyl-1-oxo-1,2-dihydroptalazine-6-yl]piperidine-4-yl}-3-methoxybenzamide], the DC50 in test [1] (setting [4]) and in test [3] (setting [5]) was > 1 µM throughout. Moreover, the pIC50 in test [2] (setting [8]) is < 6.00.

Consider `CC[C@@H]1c2nnc(C)n2-c2cnc(Nc3ccc(C(=O)N4CCC(CN5CCN(c6ccc7c(=O)n(C8CCC(=O)NC8=O)nc(C)c7c6)CC5)CC4)cc3OC)nc2N1CC1CCCCC1` (stereo partly drawn) [ICT-0001553, 3-(6-(4-(1-(4-(((R)-5-(cyclohexylmethyl)-4-ethyl-1-methyl-4,5-dihydro-[1,2,4]triazolo[4,3-f]pteridine-7-yl)amino)3-methoxybenzoyl)piperidine-4-yl)piperazine-1-yl)4-methyl-1-oxopthalazine-2(1H)-yl)piperidine-2,6-dione], for which the DC50 is 0.1 to 1 µM in test [1] (setting [4]) and < 0.1 µM in test [3] (setting [5]). In addition, in test [2] (setting [8]), the pIC50 was < 6.00.

For `CC[C@@H]1c2nnc(C)n2-c2cnc(Nc3ccc(C(=O)N4CCN(CC5CCN(c6ccc(NC7CCC(=O)NC7=O)cc6F)CC5)CC4)cc3OC)nc2N1CC1CCCCC1` (stereo partly drawn) [ICT-0001518, 3-((4-(4-((4-(4-(((R)-5-(cyclohexylmethyl)-4-ethyl-1-methyl-4,5-dihydro-[1,2,4]triazolo[4,3-f]pteridine-7-yl)amino)3-methoxybenzoyl)piperazine-1-il)methyl)piperidine-1-yl)-3-fluorophenyl)amino)piperidine-2,6-dione], the DC50 in test [1] (setting [4]) and in test [3] (setting [5]) was < 0.1 µM in each case. The pIC50 in test [2] (setting [8]) is 6.00 to 7.00.

Regarding `Cc1sc2c(c1C)C(c1ccc(Cl)cc1)=N[C@@H](CC(=O)Nc1ccc(OCCCCCc3ccc4c(=O)n(C5CCC(=O)NC5=O)ncc4c3)cc1)c1nnc(C)n1-2` (stereo partly drawn) [ICT-0001411, 2-[(9S)-7-(4-chlorophenyl)-4,5,13-trimethyl-3-thia-1,8,11,12-tetraazatricyclo[8.3.0.0^2,^6]trideca-2(6),4,7,10,12-pentaene-9-yl]-N-[4-({5-[2-(2,6-dioxopiperidin-3-yl)-1-oxo-1,2-dihydroptalazine-6-yl]pentyl}oxy)phenyl)acetamide], the DC50 in test [1] (setting [6]) and in test [3] (setting [7]) was > 1 µM each time.

As for `Cc1sc2c(c1C)C(c1ccc(Cl)cc1)=N[C@@H](CC(=O)Nc1ccc(OCCCC#Cc3ccc4c(=O)n(C5CCC(=O)NC5=O)ncc4c3)cc1)c1nnc(C)n1-2` (stereo partly drawn) [ICT-0001409, 2-[(9S)-7-(4-chlorophenyl)-4,5,13-trimethyl-3-thia-1,8,11,12-tetraazatricyclo[8.3.0.0^2,^6]trideca-2(6),4,7,10,12-pentaene-9-yl]-N-[4-({5-[2-(2,6-dioxopiperidin-3-yl)-1-oxo-1,2-dihydroptalazine-6-yl]pent-4-phosphorus-1-yl}oxy)phenyl]acetamide], the DC50 in test [1] (setting [6]) and in test [3] (setting [7]) was > 1 µM throughout.

As usually defined, the DC50 is the midpoint of the concentration-degradation curve. Usually pIC50 stands for −log10 of the IC50, conventionally taken in molar units.
